Results published in patent US9963445B2, “Chemical compounds” (SYNGENTA PARTICIPATIONS AG, priority 2013, dated 2018).

Assays:
Format in all cases: in vivo
Abutilon theophrasti [1] = assay: Post-emergence herbicidal activity, glasshouse pot test; set-up: key: 0 = no damage to plant, 5 = total damage to plant; settings: Application post-emergence, rate 1000 g/ha, evaluated after 13 days
How it was run: (§1)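 Damage rated 0 (none) to 5 (total) 13 days after spraying. Plants were treated post-emergence at 8 days after sowing, using an acetone/water (50:50) formulation with 0.5% Tween 20 diluted to an aqueous spray.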

Echinochloa crus-galli [2] = assay: as above; set-up: key: 0 = no damage to plant, 5 = total damage to plant; settings: Application post-emergence, rate 1000 g/ha, evaluated after 13 days
How it was run: as §1

Alopecurus myosuroides [3] = assay: as above; set-up: key: 0 = no damage to plant, 5 = total damage to plant; settings: Application post-emergence, rate 1000 g/ha, evaluated after 13 days
How it was run: as §1

zea mays [4] = assay: as above; set-up: key: 0 = no damage to plant, 5 = total damage to plant; settings: Application post-emergence, rate 1000 g/ha, evaluated after 13 days
How it was run: as §1

Amaranthus retroflexus [5] = assay: as above; set-up: key: 0 = no damage to plant, 5 = total damage to plant; settings: Application post-emergence, rate 1000 g/ha, evaluated after 13 days
How it was run: as §1

Setaria faberi [6] = assay: as above; set-up: key: 0 = no damage to plant, 5 = total damage to plant; settings: Application post-emergence, rate 1000 g/ha, evaluated after 13 days
How it was run: as §1

Abutilon theophrasti [7] = assay: Pre-emergence herbicidal activity, glasshouse pot test; settings: pre-emergence spray, rate 1000 g/ha, evaluated after 13 days, scale 0-5
How it was run: (§2)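 Glasshouse conditions were 24/16 °C day/night with 14 h light and 65% humidity throughout. Soil was sprayed before emergence, one day after sowing, using an acetone/water (50:50) formulation with 0.5% Tween 20; injury was scored 0–5 after 13 days.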

Echinochloa crus-galli [8] = assay: as above; settings: pre-emergence spray, rate 1000 g/ha, evaluated after 13 days, scale 0-5
How it was run: as §2

Alopecurus myosuroides [9] = assay: as above; settings: pre-emergence spray, rate 1000 g/ha, evaluated after 13 days, scale 0-5
How it was run: as §2

zea mays [10] = assay: as above; settings: pre-emergence spray, rate 1000 g/ha, evaluated after 13 days, scale 0-5
How it was run: as §2

Amaranthus retroflexus [11] = assay: as above; settings: pre-emergence spray, rate 1000 g/ha, evaluated after 13 days, scale 0-5
How it was run: as §2

Setaria faberi [12] = assay: as above; settings: pre-emergence spray, rate 1000 g/ha, evaluated after 13 days, scale 0-5
How it was run: as §2

Compound | ABUTH herbicidal damage score (Abutilon theophrasti [1]) | ECHCG herbicidal damage score (Echinochloa crus-galli [2]) | ALOMY herbicidal damage score (Alopecurus myosuroides [3]) | ZEAMX herbicidal damage score (zea mays [4]) | AMARE herbicidal damage score (Amaranthus retroflexus [5]) | SETFA herbicidal damage score (Setaria faberi [6]) | ABUTH damage score, application pre-emergence (Abutilon theophrasti [7]) | ECHCG damage score, application pre-emergence (Echinochloa crus-galli [8]) | ALOMY damage score, application pre-emergence (Alopecurus myosuroides [9]) | ZEAMX damage score, application pre-emergence (zea mays [10]) | AMARE damage score, application pre-emergence (Amaranthus retroflexus [11]) | SETFA damage score, application pre-emergence (Setaria faberi [12])
COC1=C(C)C(O)N(c2ccc([N+](=O)[O-])cn2)C1=O (stereo not drawn) [AI29] | 0 | 0 | 0 | 1 | 0 | 0 | 0 | 0 | 1 | 0 | 2 | 1
COC1=C(C)C(O)N(c2cc(C(C)C)c(C(=O)NC(C)(C)C#N)cn2)C1=O (stereo not drawn) [AI31] | 5 | 5 | 4 | 2 | 5 | 5 | 2 | 3 | 3 | 2 | 5 | 2
COC1=C(C)C(O)N(c2cc(C)c(Br)cn2)C1=O (stereo not drawn) [AI32] | 5 | 5 | 5 | 2 | 5 | 5 | 0 | 4 | 2 | 1 | 5 | 2
COC1=C(C)C(O)N(c2cc(C)c(C(=O)NC3(C#N)CC3)cn2)C1=O (stereo not drawn) [AI34] | 5 | 4 | 4 | 3 | 5 | 5 | 1 | 4 | 3 | 0 | 4 | 3
CCC(C)(C)NC(=O)c1cnc(N2C(=O)C(OC)=C(C)C2O)cc1C (stereo not drawn) [AI35] | 5 | 5 | 5 | 3 | 5 | 5 | 5 | 5 | 4 | 2 | 5 | 5
COC1=C(C)C(O)N(c2cc(C)c(C(=O)NC(C)C(C)C)cn2)C1=O (stereo not drawn) [AI36] | 5 | 5 | 5 | 3 | 5 | 5 | 5 | 4 | 4 | 2 | 5 | 5
CCC(CNC(=O)c1cnc(N2C(=O)C(OC)=C(C)C2O)cc1C)C(F)(F)F (stereo not drawn) [AI37] | 5 | 5 | 5 | 5 | 5 | 5 | 5 | 5 | 4 | 2 | 5 | 5
COC1=C(C)C(O)N(c2cc(C(F)(F)F)c(C(=O)CC#N)cn2)C1=O (stereo not drawn) [AI38] | 4 | 5 | 4 | 2 | 5 | 4 | 1 | 4 | 3 | 2 | 5 | 3
COC1=C(Br)C(=O)N(c2cc(C(F)(F)F)ccn2)C1O (stereo not drawn) [AJ1, 4-bromo-2-hydroxy-3-methoxy-1-[4-(trifluoromethyl)-2-pyridyl]-2H-pyrrol-5-one] | 5 | 5 | 5 | 2 | 5 | 5 | 5 | 5 | 4 | 2 | 4 | 5
COC1=C(OC)C(O)N(c2cc(F)ccn2)C1=O (stereo not drawn) [AK3] | 5 | 5 | 4 | 4 | 4 | 5 | 5 | 4 | 2 | 2 | 5 | 3
COC1=C(OC)C(O)N(c2cc(C(F)(F)F)c(C(F)(F)F)cn2)C1=O (stereo not drawn) [AK4] | 5 | 5 | 3 | 2 | 5 | 3 | 1 | 0 | 1 | 1 | 1 | 0
COC1=C(OC)C(O)N(c2cc(Br)ccn2)C1=O (stereo not drawn) [AK5] | 5 | 5 | 5 | 0 | 5 | 5 | 0 | 4 | 1 | 0 | 1 | 1
COC1=C(OC)C(O)N(c2cc(OC)ccn2)C1=O (stereo not drawn) [AK6] | 1 | 1 | 1 | 0 | 0 | 0 | 0 | 0 | 0 | 0 | 0 | 0
COC1=C(OC)C(O)N(c2cc(Cl)c(Cl)cn2)C1=O (stereo not drawn) [AK7] | 5 | 5 | 4 | 1 | 5 | 5 | 2 | 4 | 0 | 0 | 0 | 0
COC1=C(OC)C(O)N(c2cc(C(F)(F)F)ccn2)C1=O (stereo not drawn) [AK8] | 5 | 5 | 4 | 3 | 5 | 5 | 5 | 4 | 3 | 2 | 5 | 3
CC1=C(Cl)C(=O)N(c2cc(C(C)(C)C)c(Cl)nn2)C1O (stereo not drawn) [BF1] | 5 | 5 | 4 | 2 | 5 | 4 | 4 | 2 | 2 | 1 | 5 | 3
